Activity calls are given as the source filed them. The calls are words filed in the database; no cut-off is given here.

Data set [1] concerns NCI-H1975. Put plainly: Antitumor activity against NSG mouse xenografted with human NCI-H1975 cells assessed as reduction on tumor growth at 25 mg/kg,ip measured after 2 weeks. The format is functional, organism-based. (Xenograft models place foreign cells or tissue in a host animal.)
The test system of data set [2] is NCI-H1975. Put plainly: Induction of apoptosis in human NCI-H1975 cells assessed as caspase-8 cleavage at 0.05 to 2 uM incubated for 24 hrs by western blot analysis. It is filed as functional, cell-based. The following applies: dose 0.05-2 µM, DDE = dose-dependent effect. A general note: In western blotting, separated proteins are transferred to a membrane and probed.

For data set [3], the target named is T1, Protein deacetylase HDAC6 (Homo sapiens) (UniProt Q9UBN7).
T1 sequence (whole entry): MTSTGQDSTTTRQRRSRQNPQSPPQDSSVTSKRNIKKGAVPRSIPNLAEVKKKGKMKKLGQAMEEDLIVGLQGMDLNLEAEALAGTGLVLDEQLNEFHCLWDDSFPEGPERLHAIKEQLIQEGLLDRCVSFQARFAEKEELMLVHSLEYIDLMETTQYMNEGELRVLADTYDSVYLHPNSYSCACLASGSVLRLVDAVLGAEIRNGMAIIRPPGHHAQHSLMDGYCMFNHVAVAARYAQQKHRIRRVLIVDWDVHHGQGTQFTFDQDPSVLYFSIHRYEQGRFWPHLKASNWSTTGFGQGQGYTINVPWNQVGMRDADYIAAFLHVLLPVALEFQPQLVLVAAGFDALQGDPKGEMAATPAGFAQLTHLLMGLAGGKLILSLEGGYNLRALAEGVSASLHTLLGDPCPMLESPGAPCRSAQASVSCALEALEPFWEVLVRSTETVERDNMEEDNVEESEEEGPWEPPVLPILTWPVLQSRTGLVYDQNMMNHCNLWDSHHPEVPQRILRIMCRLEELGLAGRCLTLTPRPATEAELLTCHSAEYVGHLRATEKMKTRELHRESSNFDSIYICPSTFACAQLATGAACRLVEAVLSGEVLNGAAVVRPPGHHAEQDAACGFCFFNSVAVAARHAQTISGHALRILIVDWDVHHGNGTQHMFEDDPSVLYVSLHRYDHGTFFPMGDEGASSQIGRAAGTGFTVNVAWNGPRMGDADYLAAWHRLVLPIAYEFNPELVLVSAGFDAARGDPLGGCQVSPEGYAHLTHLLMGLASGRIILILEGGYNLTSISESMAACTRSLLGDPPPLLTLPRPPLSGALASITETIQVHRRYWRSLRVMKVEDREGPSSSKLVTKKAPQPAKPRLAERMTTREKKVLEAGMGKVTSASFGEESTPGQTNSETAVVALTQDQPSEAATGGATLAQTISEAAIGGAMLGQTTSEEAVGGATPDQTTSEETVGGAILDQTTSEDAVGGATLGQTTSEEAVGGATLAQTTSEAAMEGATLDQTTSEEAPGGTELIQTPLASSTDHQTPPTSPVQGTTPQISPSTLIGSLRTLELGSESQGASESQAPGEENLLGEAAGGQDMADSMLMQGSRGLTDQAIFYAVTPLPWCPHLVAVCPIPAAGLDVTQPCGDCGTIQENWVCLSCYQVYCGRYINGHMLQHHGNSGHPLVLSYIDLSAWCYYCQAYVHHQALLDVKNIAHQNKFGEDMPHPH
In words: Inhibition of HDAC6 in human NCI-H1975 cells assessed as increase in acetylation of HSP90 at 2 uM incubated for 24 hrs by western blot analysis. The format is cell-based.

Data set [4] has as its system NCI-H1975. In words: Induction of apoptosis in human NCI-H1975 cells assessed as PARP cleavage at 0.05 to 2 uM incubated for 24 hrs by western blot analysis. The format is functional, cell-based. The following applies: dose 0.05-2 µM, DDE = dose-dependent effect.
For data set [5], the target named is T2, Heat shock protein HSP90 (Homo sapiens) (UniProt P07900+P08238). In words: Inhibition of HSP90 in human NCI-H1975 cells assessed as downregulation of Her2 expression at 0.05 to 2 uM incubated for 24 hrs by western blot analysis. It is filed as cell-based. The following applies: dose 0.05-2 µM, DDE = dose-dependent effect.
Data set [6] deals with T1, Protein deacetylase HDAC6 (Homo sapiens). Put plainly: Inhibition of HDAC6 in human NCI-H1975 cells assessed as microtubule polymerization at 1 uM incubated for 24 hrs by DAPI staining based immunofluorescence microscopy. The format is cell-based.
Data set [7] deals with NCI-H1975. In words: Antiproliferative activity against human NCI-H1975 cells assessed as growth inhibition incubated upto 72 hrs by CellTiter96 Aqueous One Solution Cell Proliferation assay. It is filed as functional.
In data set [8] the test system is Mus musculus. In words: In vivo inhibition of HDAC1 in human NCI-H1975 cells xenografted with NSG mouse assessed as increase in acetylation of Histone H3 at 50 mg/kg,ip measured after 6 weeks by immunohistochemistry analysis. It is filed as functional, organism-based.
In data set [9] the test system is NCI-H1975. In words: Induction of apoptosis in human NCI-H1975 cells assessed as caspase-3 cleavage at 0.05 to 2 uM incubated for 24 hrs by western blot analysis. It is filed as functional, cell-based. Particulars: dose 0.05-2 µM, DDE = dose-dependent effect.
The nature of data set [10]: Toxicity in NSG mouse xenografted with human NCI-H1975 cells assessed as change in body weight at 25 mg/kg,ip measured after 6 weeks. The format is organism-based. The following applies: in vivo, 1008 h.
Data set [11] concerns NCI-H1975. Put plainly: Induction of apoptosis in human NCI-H1975 cells assessed as late apoptotic cells at 2 uM incubated for 24 hrs by Annexin-V/propidium iodide staining based flow cytometry analysis. The format is functional.
Data set [12] has as its target T2, Heat shock protein HSP90 (Homo sapiens). In words: Inhibition of HSP90 in human NCI-H1975 cells assessed as downregulation of Met expression at 0.05 to 2 uM incubated for 24 hrs by western blot analysis. Particulars: dose 0.05-2 µM, DDE = dose-dependent effect. The format is cell-based.
For data set [13] the target is unchanged. Put plainly: Inhibition of HSP90 in human NCI-H1975 cells assessed as upregulation of HSP70 expression at 0.05 to 2 uM incubated for 24 hrs by western blot analysis. The format is cell-based. The following applies: dose 0.05-2 µM, DDE = dose-dependent effect.
The nature of data set [14]: Toxicity in NSG mouse xenografted with human NCI-H1975 cells assessed as change in number of retina at 50 mg/kg,ip measured after 6 weeks by H and E staining based assay. The format is organism-based. Particulars: in vivo, 1008 h.
In data set [15] the test system is Mus musculus. In words: In vivo inhibition of HDAC1 in human NCI-H1975 cells xenografted with NSG mouse assessed as increase in acetylation of Histone H3 at 25 mg/kg,ip measured after 6 weeks by immunohistochemistry analysis. It is filed as functional, organism-based.
Data set [16] addresses T1, Protein deacetylase HDAC6 (Homo sapiens). Put plainly: Inhibition of HDAC6 in human NCI-H1975 cells assessed as increase in acetylation of alpha tubulin at 1 uM incubated for 24 hrs by western blot analysis. It is filed as cell-based.
In data set [17] the test system is NCI-H1975. Put plainly: Antitumor activity against NSG mouse xenografted with human NCI-H1975 cells assessed as reduction on tumor growth at 50 mg/kg,ip measured after 6 weeks. It is filed as functional, organism-based.
Data set [18] is described as follows: Toxicity in NSG mouse xenografted with human NCI-H1975 cells assessed as change in structure of retina at 25 mg/kg,ip measured after 6 weeks by H and E staining based assay. It is filed as organism-based. Particulars: in vivo, 1008 h.
The subject of data set [19] is NCI-H1975. In words: Induction of apoptosis in human NCI-H1975 cells assessed as early apoptotic cells at 2 uM incubated for 24 hrs by Annexin-V/propidium iodide staining based flow cytometry analysis. The format is functional.
The nature of data set [20]: Toxicity in NSG mouse xenografted with human NCI-H1975 cells assessed as change in body weight at 50 mg/kg,ip measured after 6 weeks. Particulars: in vivo, 1008 h. It is filed as organism-based.
Data set [21] has as its system Mus musculus. In words: In vivo inhibition of HSP90 in human NCI-H1975 cells xenografted with NSG mouse assessed as downregulation of EGFR expression at 50 mg/kg,ip measured after 6 weeks by immunohistochemistry analysis. The format is functional, organism-based.

On to `CC(C)c1cc(C(=O)N(C)Cc2ccc(C(=O)NO)cc2)c(O)cc1O`, for which the result with NCI-H1975 [1] and in the data set on NCI-H1975 [17] was Active. Moreover, the Activity result was “Dde” in the data set on NCI-H1975 [2]; “Dde” with NCI-H1975 [4]; “Dde” with NCI-H1975 [9]; “Non-Toxic” in [10]; 9.01% with NCI-H1975 [11]; “Non-Toxic” in [14]. In addition, the Activity result is on record as “Non-Toxic” in [18], 16.78% in the data set with NCI-H1975 [19] and “Non-Toxic” in [20]. Further, the inhibition entry (in data set [3]; in [6]; in the data set on Mus musculus [8]; with Mus musculus [15]; in data set [16]; with Mus musculus [21]) was “Active” each time. For the same compound, the inhibition entry in data set [5], in data set [12] and in data set [13] was “Dde” in each case. In addition, in the data set with NCI-H1975 [7], the 50% growth inhibitory concentration (GI50) (commonly the concentration giving 50% growth inhibition) amounted to 1.7 µM.

Values taken from ChEMBL document CHEMBL5113492, “Design, synthesis, and biological evalution of bifunctional inhibitors against Hsp90-HDAC6 interplay” (Eur J Med Chem, 2022).
